# Source: patent publication US20150335677A1, “Argon is a mu opioid receptor antagonist” (priority 2014, published 2015)
# Tests used:
# Sprague-Dawley rats [1] = assay: Social interaction in open field; format: in vivo, rat; details: argon 75 vol % 3 h day 1 to day 3 vs air; recorded after treatment on days 1 to 3 and on day 7; P<0.05
# Method: (§1) In a first series of experiments, male adult Sprague-Dawley rats (n=6 per group) were treated for 3 h from day 1 to day 3 with ‘medical’ air (composed of 75 vol % nitrogen and 25 vol % oxygen) or argon at 75 vol % (with the remainder being oxygen) at a flow rate of 5 L/min in a closed chamber. None of the animals were habituated to handling with their abdomen side up. Immediately after being treated with either air or argon from day 1 to day 3, and on day 7, rats were handled by an experimenter blind of the rats' gas treatment, with their back placed in the palm of the experimenter and their abdomen side up. The rat's stress level was rated both by the experimenter and an additional observer, also blind of the rats' gas treatment, by counting the number of righting reflex of the animals during a 1-min period on a scale of 0 to 3 with 0 being a total absence of righting reflex and 3 being repetitive righting reflexes. Then, the rats' social interaction was also evaluated. The animals were placed by group of 2 in an open field measuring 90 cm×90 cm for a 10-min period, and the time spent by the animals at a distance comprised between 2 and 5 cm was recorded and taken as a behavioral marker of social interaction.
# [2] = normobaric and hyperbaric pressures of 1 to 4 atmospheres absolute; cited from earlier work
# mu opioid receptor = target: T1, mu opioid receptor (Rattus norvegicus, UniProt P33535); assay: [3H]-DAMGO binding in rat whole-brain membrane protein preparations; details: 100 vol % argon compared to 100 vol % nitrogen
# T1 construct: Membrane preparations were obtained from whole brains of rats untreated (n=4); from tissue; host or cells: rat whole brain membranes
# T1 sequence (P33535 whole entry): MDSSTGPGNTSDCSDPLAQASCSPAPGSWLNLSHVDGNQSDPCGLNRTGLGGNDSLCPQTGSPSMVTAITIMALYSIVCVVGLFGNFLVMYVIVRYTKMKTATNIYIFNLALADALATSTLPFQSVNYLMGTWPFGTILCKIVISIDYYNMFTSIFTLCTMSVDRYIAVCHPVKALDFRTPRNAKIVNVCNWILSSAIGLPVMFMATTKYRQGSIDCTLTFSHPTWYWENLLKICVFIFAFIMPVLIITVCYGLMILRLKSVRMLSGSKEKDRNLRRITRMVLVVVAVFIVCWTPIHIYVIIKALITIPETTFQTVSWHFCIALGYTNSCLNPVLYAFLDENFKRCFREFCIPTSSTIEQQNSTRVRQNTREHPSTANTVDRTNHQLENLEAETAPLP
# Method: Membrane preparations were obtained from whole brains of rats untreated (n=4). The brains were crushed and homogenized in TRIS-HCl 50 mM buffer. After centrifugation, the bases of the vials were suspended in the same volume of TRIS-HCl buffer (×2). When the membrane preparation was obtained, the proteins were quantified to prepare in fine a solution at 1 mg/ml. Proteins were quantified using a BCA protein assay. Then, binding studies were performed as follows: solutions to allow calculating total binding were prepared by adding 385 μL of a TRIS-HCl buffer to 330 μL of proteins and 385 μL of [^3H]-DAMGO at decreasing concentrations (n=2 per dose, N=12). Solutions to allow calculating non-specific binding were prepared in the same fashion with naloxone instead of buffer. The vials containing these solutions were left open and placed in a closed chamber to allow saturating the solutions with 100 vol % nitrogen or argon. 1000 μL of each vial were placed in a 24-well plate coated with polyethylenimine. After drying, 100 μL scintillant was added to allow counting radioactivity (×3). Specific binding was obtained by subtracting non-specific binding to total binding, and Bmax, Kd, and Bmax×1/Kd (mu receptor activity) were calculated.
# [3] = target: T2, type 2 vesicular monoamine transporter (Rattus norvegicus, UniProt Q01827); assay: Carrier-mediated and KCl-evoked dopamine release in nucleus accumbens brain slices with amphetamine; format: cell-based
# T2 construct: Coronal brain slices (400 μm thickness) including the nucleus accumbens; from tissue; host or cells: rat nucleus accumbens brain slices
# T2 sequence (Q01827 whole entry): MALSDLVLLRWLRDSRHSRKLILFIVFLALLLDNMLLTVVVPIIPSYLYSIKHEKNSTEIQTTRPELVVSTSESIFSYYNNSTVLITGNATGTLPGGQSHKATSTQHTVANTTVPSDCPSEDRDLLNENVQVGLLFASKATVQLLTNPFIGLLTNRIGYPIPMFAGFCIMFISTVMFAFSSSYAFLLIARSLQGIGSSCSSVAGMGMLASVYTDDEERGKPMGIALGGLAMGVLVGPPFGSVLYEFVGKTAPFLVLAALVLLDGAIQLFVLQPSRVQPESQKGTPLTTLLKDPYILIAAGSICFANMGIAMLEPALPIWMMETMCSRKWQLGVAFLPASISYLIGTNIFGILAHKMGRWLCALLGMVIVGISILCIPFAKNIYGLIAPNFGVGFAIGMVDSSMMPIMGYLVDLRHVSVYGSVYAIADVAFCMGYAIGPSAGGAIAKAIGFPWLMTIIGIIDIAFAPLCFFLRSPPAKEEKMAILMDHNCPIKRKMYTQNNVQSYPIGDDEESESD
# Method: Rats were killed by decapitation and the brains were carefully removed and placed in ice-cold artificial cerebrospinal fluid (aCSF). Coronal brain slices (400 μm thickness) including the nucleus accumbens (anteriority: −1.2 to +2 mm from the bregma) were cut using a tissue chopper. Before being used, brain slices (n=4 per condition) were allowed to recover at room temperature for 1 hour in oxygenated a CSF. […] Control slices were treated with saline solution and air. Carrier-mediated and depolarization-dependent (KCl: 100 mM) dopamine release in the nucleus accumbens were monitored using a polarograph and standard glass-encased nafion-precoated carbon fiber electrodes (David H. N. et al., Biol. Psych., 2006). […] Therefore, in the experiments with argon, argon was only administered after Peak 1 (P1) KCl-evoked dopamine release had returned to baseline (B2).
# Sprague-Dawley rats [4] = assay: Time in central area of open field after electric shock conditioning; format: in vivo, rat; details: argon 75 vol % 3 h day 4 to day 6 vs air; recorded on days 4 to 6 and on day 8; P<0.05
# Method: In a second series of experiments, from day 1 to day 3, additional male Sprague-Dawley rats (n=6 per group) were placed for 10 min in an open field measuring 90 cm×90 cm, which central area measuring 50 cm×50 cm was equipped for delivering an electric shock to the animals that stayed more than 5 s in the area. From day 4 to day 6, the animals were treated for 3 h with medical air or argon at 75 vol % at a flow rate of 5 L/min in a closed chamber. Immediately after being treated with either air or argon from day 4 to day 6, and on day 8, rats were placed in the open field, and recorded during a 10-min period for the time that they spent in the central area whose electrical circuit was switched off.
# Sprague-Dawley rats [5] = assay: Stress level: righting reflex when handled abdomen side up; format: in vivo, rat; details: argon 75 vol % 3 h day 1 to day 3 vs air; recorded after treatment on days 1 to 3 and on day 7; P<0.05
# Method: as §1
# [6] = tested on: type A γ-aminobutyric acid (GABA) and benzodiazepine receptors; details: pressure of around 15 atmospheres absolute; cited from earlier work
# [7] = tested on: spontaneously hypertensive rats; assay: Locomotor activity in spontaneously hypertensive rats (ADHD model); format: in vivo, rat; details: argon 75 vol % 3 h daily day 1 to day 3 vs medical air; recorded on day 7; P<0.02
# Method: Male spontaneously hypertensive rats (n=7-8 per group), known to show spontaneous locomotor hyperactivity and used as a model for the attention deficit and hyperactivity disorder (ADHD), were treated daily from day 1 to day 3 for 3 h with ‘medical’ air (composed of 75 vol % nitrogen and 25 vol % oxygen) or argon at 75 vol % (with the remainder being oxygen) at a flow rate of 5 L/min in a closed chamber. On day 7, rats were habituated to the activity boxes for 1 h before being recorded for locomotor activity for 1 h 30 min as detailed previously (David et al., Neuropharmacol., 2004).
structure (smiles),measurement,setting,value
[Ar] [argon],social interactions,Sprague-Dawley rats [1],increased number of social interactions
same,side effects of breathing argon,[2],no or minimal side effect
same,1/Kd (affinity) of DAMGO binding,mu opioid receptor,trend toward reduction
same,decrease in mu receptor activity (Bmax×1/Kd),mu opioid receptor; P<0.05,60%
same,decrease of Bmax (number of receptors) of DAMGO binding,mu opioid receptor; membrane protein preparations,15%
same,effect on Peak 2 KCl-evoked dopamine release,"[3]; amphetamine in the presence of air or argon, KCl 100 mM",lack of effect
same,effect on amphetamine-induced reduction in Peak 3 (P3) KCl-evoked dopamine release,"[3]; argon 75 vol % vs air, with amphetamine, KCl 100 mM, P<0.02",further potentiates the reduction
same,effect on amphetamine-induced increase in carrier-mediated dopamine release,"[3]; argon 75 vol % vs air, with amphetamine, rat nucleus accumbens slices, P<0.02",decreases the facilitating action of amphetamine
same,time spent in central area of the open field,Sprague-Dawley rats [4],penetrated the central area of the open field to a greater extent
same,number of righting reflex when handled abdomen side up,Sprague-Dawley rats [5],reduced number of righting reflex
same,action at type A GABA and benzodiazepine receptors,[6],acts as an agonist
same,locomotor activity,[7],lower locomotor activity
